Columns and labels:
[1] = target: T1, serotonin (5-HT) reuptake (Rattus norvegicus, UniProt P31652); assay: Inhibition of serotonin (5HT) reuptake in synaptosomes from rat brain; format: biochemical; settings: test concentration of 10 μM
T1 construct: synaptosomes are freshly isolated from areas of the rat brain; from tissue; host or cells: rat brain synaptosomes (P2 fraction)
Method in brief: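 Compounds screened at 10 μM and reported as percent inhibition of serotonin uptake. Uptake measured in a freshly prepared P2 synaptosomal fraction from rat brain.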

[2] = target: T2, human bradykinin 1 receptor (B1R) (Homo sapiens, UniProt P46663); assay: Functional investigation on the human bradykinin 1 receptor (B1R), Ca2+ FLIPR assay in CHO K1 hB1R cells; format: cell-based; settings: B1R antagonism human; test substance 10 μM; Ca2+ FLIPR, CHO K1 hB1R cells
T2 construct: expressed in transfected cells; host or cells: CHO K1 cells
T2 sequence (P46663 1-353): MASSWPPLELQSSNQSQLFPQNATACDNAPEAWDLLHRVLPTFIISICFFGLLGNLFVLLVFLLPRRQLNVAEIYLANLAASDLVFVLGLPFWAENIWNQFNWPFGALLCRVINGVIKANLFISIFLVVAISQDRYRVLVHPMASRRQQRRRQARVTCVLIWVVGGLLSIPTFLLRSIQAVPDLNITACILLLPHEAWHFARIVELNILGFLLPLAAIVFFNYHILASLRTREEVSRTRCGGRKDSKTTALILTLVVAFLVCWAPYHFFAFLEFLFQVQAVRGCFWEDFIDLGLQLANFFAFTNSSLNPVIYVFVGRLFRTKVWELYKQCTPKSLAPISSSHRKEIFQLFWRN
Method in brief: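 Peak Ca2+-dependent fluorescence in B1R-transfected CHO K1 cells measures antagonism of an EC80 agonist challenge given 10-20 min after compound. Agonist is Lys-Des-Arg9-bradykinin for human, Des-Arg9-bradykinin for rat receptor.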

T1 sequence (P31652 whole entry): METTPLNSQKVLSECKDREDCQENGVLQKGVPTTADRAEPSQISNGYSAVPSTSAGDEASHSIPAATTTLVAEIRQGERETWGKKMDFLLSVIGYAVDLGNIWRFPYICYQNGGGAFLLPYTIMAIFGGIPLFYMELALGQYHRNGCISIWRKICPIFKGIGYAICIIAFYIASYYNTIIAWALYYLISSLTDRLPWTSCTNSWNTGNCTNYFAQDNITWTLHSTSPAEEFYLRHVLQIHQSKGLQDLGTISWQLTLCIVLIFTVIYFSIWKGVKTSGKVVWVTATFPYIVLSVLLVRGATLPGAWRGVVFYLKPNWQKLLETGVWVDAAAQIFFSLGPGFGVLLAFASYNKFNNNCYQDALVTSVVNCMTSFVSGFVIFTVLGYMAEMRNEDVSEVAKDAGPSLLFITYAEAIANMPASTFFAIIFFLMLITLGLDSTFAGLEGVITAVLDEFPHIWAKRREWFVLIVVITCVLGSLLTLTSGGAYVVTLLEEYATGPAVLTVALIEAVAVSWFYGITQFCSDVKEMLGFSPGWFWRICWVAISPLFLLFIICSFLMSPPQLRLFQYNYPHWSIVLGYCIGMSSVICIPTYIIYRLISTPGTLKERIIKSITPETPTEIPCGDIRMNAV

## CCN(CCOCC(=O)NCC1CCC(C(c2ccc(Cl)cc2)N(C)C)CC1)S(=O)(=O)c1c(C)cc(OC)c(C)c1C (stereo not shown) [Example 310]
[1]
  5-HT (inhibition of reuptake of serotonin, % inhibition): 83%
[2]
  B1R Ant. h [10 μM] % Inhibition: 89%

## COc1cc(C)c(S(=O)(=O)N(C)CCOCC(=O)NCCC2CCC(C(c3ccc(F)cc3)N(C)C)CC2)c(C)c1C (stereo not shown) [Example 354]
[1]
  5-HT (inhibition of reuptake of serotonin, % inhibition): 90%
[2]
  B1R Ant. h [10 μM] % Inhibition: 104%

## CN(C)C(c1ccc(F)cc1)C1CCC(CCNC(=O)COCC2CCCCN2S(=O)(=O)c2ccc(Cl)c(Cl)c2)CC1 (stereo not shown) [Example 337]
[1]
  5-HT (inhibition of reuptake of serotonin, % inhibition): 96%
[2]
  B1R Ant. h [10 μM] % Inhibition: 51%

## CN(C)C(c1ccc(F)cc1)C1CCC(NC(=O)COC2CCN(S(=O)(=O)c3cccc(C(F)(F)F)c3)C2)CC1 (stereo not shown) [Example 330]
[1]
  5-HT (inhibition of reuptake of serotonin, % inhibition): 90%
[2]
  B1R Ant. h [10 μM] % Inhibition: −6%

## COc1ccc(S(=O)(=O)N2CCC(OCC(=O)NCCC3CCC(C(c4ccc(Cl)cc4)N(C)C)CC3)C2)cc1OC (stereo not shown) [Example 338]
[1]
  5-HT (inhibition of reuptake of serotonin, % inhibition): 86%
[2]
  B1R Ant. h [10 μM] % Inhibition: −3%

## COc1ccc(S(=O)(=O)N(C)CCOCC(=O)NCC2CCC(C(c3ccc(Cl)cc3)N(C)C)CC2)cc1 (stereo not shown) [Example 324]
[1]
  5-HT (inhibition of reuptake of serotonin, % inhibition): 83%
[2]
  B1R Ant. h [10 μM] % Inhibition: 42%

## COc1ccc(S(=O)(=O)N2CCCCC2COCC(=O)NCCC2CCC(C(c3ccc(Cl)cc3)N(C)C)CC2)cc1 (stereo not shown) [Example 311]
[1]
  5-HT (inhibition of reuptake of serotonin, % inhibition): 95%
[2]
  B1R Ant. h [10 μM] % Inhibition: 69%

## CN(C)C(c1cccs1)C1CCC(NC(=O)COCCN(C)S(=O)(=O)c2ccc(OC(F)(F)F)cc2)CC1 (stereo not shown) [Example 282]
[1]
  5-HT (inhibition of reuptake of serotonin, % inhibition): 52%
[2]
  B1R Ant. h [10 μM] % Inhibition: −31%

## COc1ccc(S(=O)(=O)N(C)CCOCC(=O)NCCC2CCC(C(c3cccc(F)c3)N(C)C)CC2)cc1 (stereo not shown) [Example 292]
[1]
  5-HT (inhibition of reuptake of serotonin, % inhibition): 83%
[2]
  B1R Ant. h [10 μM] % Inhibition: 20%

## CN(C)C(c1ccc(Cl)cc1)C1CCC(CNC(=O)COC2CCCN(S(=O)(=O)c3ccccc3)C2)CC1 (stereo not shown) [Example 301]
[1]
  5-HT (inhibition of reuptake of serotonin, % inhibition): 92%
[2]
  B1R Ant. h [10 μM] % Inhibition: 2%

## COc1ccc(S(=O)(=O)N2CCC(OCC(=O)NC3CCC(C(c4cccc(F)c4)N(C)C)CC3)C2)cc1OC (stereo not shown) [Example 323]
[1]
  5-HT (inhibition of reuptake of serotonin, % inhibition): 91%
[2]
  B1R Ant. h [10 μM] % Inhibition: −14%

## COc1cc(C)c(S(=O)(=O)N(C)CCOCC(=O)NCC2CCC(C(c3ccc(Cl)cc3)N(C)C)CC2)c(C)c1C (stereo not shown) [Example 298]
[1]
  5-HT (inhibition of reuptake of serotonin, % inhibition): 79%
[2]
  B1R Ant. h [10 μM] % Inhibition: 103%

## CN(C)C(c1ccc(F)cc1)C1CCC(NC(=O)COCCN(C)S(=O)(=O)c2ccc(Cl)cc2Cl)CC1 (stereo not shown) [Example 356]
[1]
  5-HT (inhibition of reuptake of serotonin, % inhibition): 84%
[2]
  B1R Ant. h [10 μM] % Inhibition: 92%

## COc1ccc(S(=O)(=O)N2CCCCC2COCC(=O)NCCC2CCC(C(c3cccc(F)c3)N(C)C)CC2)c(OC)c1 (stereo not shown) [Example 281]
[1]
  5-HT (inhibition of reuptake of serotonin, % inhibition): 89%
[2]
  B1R Ant. h [10 μM] % Inhibition: 0%

## COc1cc(C)c(S(=O)(=O)N2CCCC(OCC(=O)NC3CCC(C(c4cccc(F)c4)N(C)C)CC3)C2)c(C)c1C (stereo not shown) [Example 279]
[1]
  5-HT (inhibition of reuptake of serotonin, % inhibition): 85%
[2]
  B1R Ant. h [10 μM] % Inhibition: 23%

## Cc1ccc(S(=O)(=O)N2CCC(OCC(=O)NCCC3CCC(C(c4ccc(Cl)cc4)N(C)C)CC3)C2)cc1 (stereo not shown) [Example 305]
[1]
  5-HT (inhibition of reuptake of serotonin, % inhibition): 88%
[2]
  B1R Ant. h [10 μM] % Inhibition: 30%

## CN(C)C(c1ccc(Cl)cc1)C1CCC(CCNC(=O)COCCN(C)S(=O)(=O)c2cccc(C(F)(F)F)c2)CC1 (stereo not shown) [Example 289]
[1]
  5-HT (inhibition of reuptake of serotonin, % inhibition): 94%
[2]
  B1R Ant. h [10 μM] % Inhibition: 51%

## CN(C)C(c1ccc(Cl)cc1)C1CCC(CNC(=O)COCCN(C)S(=O)(=O)c2ccc(Cl)cc2)CC1 (stereo not shown) [Example 284]
[1]
  5-HT (inhibition of reuptake of serotonin, % inhibition): 87%
[2]
  B1R Ant. h [10 μM] % Inhibition: 48%

## COc1ccc(S(=O)(=O)N(C)CCOCC(=O)NCC2CCC(C(c3cccc(F)c3)N(C)C)CC2)cc1 (stereo not shown) [Example 340]
[1]
  5-HT (inhibition of reuptake of serotonin, % inhibition): 81%
[2]
  B1R Ant. h [10 μM] % Inhibition: 39%

## CN(C)C(c1cccc(F)c1)C1CCC(CNC(=O)COCCN(C)S(=O)(=O)c2cccc(C(F)(F)F)c2)CC1 (stereo not shown) [Example 302]
[1]
  5-HT (inhibition of reuptake of serotonin, % inhibition): 92%
[2]
  B1R Ant. h [10 μM] % Inhibition: 38%

## CN(C)C(c1ccc(Cl)cc1)C1CCC(CNC(=O)COCC2CCCN(S(=O)(=O)c3ccccc3)C2)CC1 (stereo not shown) [Example 294]
[1]
  5-HT (inhibition of reuptake of serotonin, % inhibition): 88%
[2]
  B1R Ant. h [10 μM] % Inhibition: −3%

## CN(C)C(c1ccc(F)cc1)C1CCC(NC(=O)COCCN(C)S(=O)(=O)c2ccc(F)cc2)CC1 (stereo not shown) [Example 357]
[1]
  5-HT (inhibition of reuptake of serotonin, % inhibition): 86%
[2]
  B1R Ant. h [10 μM] % Inhibition: 7%

## COc1ccc(S(=O)(=O)N2CCCC2COCC(=O)NCC2CCC(C(c3ccc(Cl)cc3)N(C)C)CC2)cc1 (stereo not shown) [Example 351]
[1]
  5-HT (inhibition of reuptake of serotonin, % inhibition): 97%
[2]
  B1R Ant. h [10 μM] % Inhibition: 52%

## COc1ccc(S(=O)(=O)N2CCCC2COCC(=O)NCC2CCC(C(c3cccc(F)c3)N(C)C)CC2)cc1 (stereo not shown) [Example 313]
[1]
  5-HT (inhibition of reuptake of serotonin, % inhibition): 93%
[2]
  B1R Ant. h [10 μM] % Inhibition: 34%

## CN(C)C(c1ccc(F)cc1)C1CCC(NC(=O)COCCN(C)S(=O)(=O)c2ccc(OC(F)(F)F)cc2)CC1 (stereo not shown) [Example 361]
[1]
  5-HT (inhibition of reuptake of serotonin, % inhibition): 87%
[2]
  B1R Ant. h [10 μM] % Inhibition: 3%

## COc1ccc(S(=O)(=O)N2CCCCC2COCC(=O)NCC2CCC(C(c3ccc(Cl)cc3)N(C)C)CC2)cc1 (stereo not shown) [Example 321]
[1]
  5-HT (inhibition of reuptake of serotonin, % inhibition): 86%
[2]
  B1R Ant. h [10 μM] % Inhibition: 94%

## CN(C)C(c1ccc(Cl)cc1)C1CCC(CNC(=O)COCCN(C)S(=O)(=O)c2cccc(C(F)(F)F)c2)CC1 (stereo not shown) [Example 314]
[1]
  5-HT (inhibition of reuptake of serotonin, % inhibition): 93%
[2]
  B1R Ant. h [10 μM] % Inhibition: 74%

## Cc1ccc(S(=O)(=O)N2CCC(OCC(=O)NCC3CCC(C(c4ccc(Cl)cc4)N(C)C)CC3)C2)cc1 (stereo not shown) [Example 304]
[1]
  5-HT (inhibition of reuptake of serotonin, % inhibition): 88%
[2]
  B1R Ant. h [10 μM] % Inhibition: 22%

## CN(C)C(c1ccc(F)cc1)C1CCC(CCNC(=O)COCCN(C)S(=O)(=O)c2c(Cl)cccc2Cl)CC1 (stereo not shown) [Example 285]
[1]
  5-HT (inhibition of reuptake of serotonin, % inhibition): 89%
[2]
  B1R Ant. h [10 μM] % Inhibition: 97%

## CN(C)C(c1ccc(Cl)cc1)C1CCC(CCNC(=O)COCCN(C)S(=O)(=O)c2ccc(Cl)cc2)CC1 (stereo not shown) [Example 347]
[1]
  5-HT (inhibition of reuptake of serotonin, % inhibition): 93%
[2]
  B1R Ant. h [10 μM] % Inhibition: 85%

## COc1cc(C)c(S(=O)(=O)N2CCC(CCOCC(=O)NCC3CCC(C(c4cccc(F)c4)N(C)C)CC3)CC2)c(C)c1C (stereo not shown) [Example 319]
[1]
  5-HT (inhibition of reuptake of serotonin, % inhibition): 87%
[2]
  B1R Ant. h [10 μM] % Inhibition: 0%

## CN(C)C(c1ccc(F)cc1)C1CCC(NC(=O)COCC2CCCN2S(=O)(=O)c2ccc(Cl)c(Cl)c2)CC1 (stereo not shown) [Example 344]
[1]
  5-HT (inhibition of reuptake of serotonin, % inhibition): 97%
[2]
  B1R Ant. h [10 μM] % Inhibition: 65%

## COc1ccc(S(=O)(=O)N2CCCCC2COCC(=O)NCC2CCC(C(c3cccc(F)c3)N(C)C)CC2)cc1OC (stereo not shown) [Example 329]
[1]
  5-HT (inhibition of reuptake of serotonin, % inhibition): 91%
[2]
  B1R Ant. h [10 μM] % Inhibition: −17%

## COc1ccc(S(=O)(=O)N2CCCCC2COCC(=O)NCCC2CCC(C(c3ccc(F)cc3)N(C)C)CC2)cc1 (stereo not shown) [Example 349]
[1]
  5-HT (inhibition of reuptake of serotonin, % inhibition): 94%
[2]
  B1R Ant. h [10 μM] % Inhibition: 68%

## Cc1cc(C)c(S(=O)(=O)N2CCC(OCC(=O)NC3CCC(C(c4ccc(F)cc4)N(C)C)CC3)C2)c(C)c1 (stereo not shown) [Example 332]
[1]
  5-HT (inhibition of reuptake of serotonin, % inhibition): 88%
[2]
  B1R Ant. h [10 μM] % Inhibition: 57%

## CN(C)C(c1ccccc1)C1CCC(CNC(=O)COC2CCN(S(=O)(=O)c3ccccc3)CC2)CC1 (stereo not shown) [Example 300]
[1]
  5-HT (inhibition of reuptake of serotonin, % inhibition): 94%
[2]
  B1R Ant. h [10 μM] % Inhibition: −35%

## COc1ccc(S(=O)(=O)N2CCCCC2COCC(=O)NC2CCC(C(c3cccc(F)c3)N(C)C)CC2)cc1OC (stereo not shown) [Example 352]
[1]
  5-HT (inhibition of reuptake of serotonin, % inhibition): 91%
[2]
  B1R Ant. h [10 μM] % Inhibition: −18%

## COc1cc(C)c(S(=O)(=O)N(C)CCOCC(=O)NCC2CCC(C(c3ccc(Cl)cc3)N(C)C)CC2)c(C)c1 (stereo not shown) [Example 348]
[1]
  5-HT (inhibition of reuptake of serotonin, % inhibition): 83%
[2]
  B1R Ant. h [10 μM] % Inhibition: 103%

From patent US8106055B2, “Substituted amide compounds” (Gruenenthal GmbH, priority 2007, dated 2012)
